# Results taken from article PMC6270338, “Diterpenylquinone Hybrids: Synthesis and Assessment of Gastroprotective Mechanisms of Action in Human Cells” (Molecules, 2013).
# How the values were obtained:
# [1] = Cytotoxicity, neutral red uptake assay, MRC-5; type: cell-based; conditions: human, MRC-5 lung fibroblasts, confluent monolayer, confluent MRC-5, 24 h, read-out: IC50 ± SD, cytotoxicity MRC-5
# Experimental: (§1) Human lung fibroblasts MRC-5 (ATCC CCL-171) were grown in minimum essential Eagle medium (MEM) with Earles’s salts and 2 mM L-glutamine (Sigma-Aldrich Co.). Human epithelial gastric cells AGS (ATCC CRL-1739) were grown in Ham F-12 medium containing 1 mM L-glutamine. Both media were supplemented with 1.5 g/L sodium bicarbonate (Sigma-Aldrich Co.), 10% heat-inactivated fetal bovine serum (FBS), 100 IU/mL penicillin and 100 µg/mL streptomycin.Both cell lines were grown as monolayers in a humidified incubator with 5% CO2 in air at 37 °C. Culture media, antibiotics and FBS were obtained from Invitrogen Corp.
# (§2) Cytotoxicity values were required as a reference to determine the working concentrations in the subsequent experiments. Briefly, confluent cultures of MRC-5 and AGS cells were treated during 24 h with medium containing the compounds at concentrations ranging from 0 up to 1,000 µM. The products were first dissolved in DMSO (1% final concentration) and then in the corresponding culture medium supplemented with 2% FBS. Untreated cells were used as controls. Cell viability was determined at the end of the incubation by means of the neutral red uptake (NRU) assay. Lansoprazole (Sigma-Aldrich Co., min. 98% by TLC) was used as reference compound.
# [2] = Cytotoxicity, neutral red uptake assay, AGS; type: cell-based; conditions: human, AGS gastric epithelial cells, confluent monolayer, read-out: IC50 ± SD, cytotoxicity AGS
# Experimental: as §1, §2
# [3] = tested on: MRC-5 fibroblasts; assay: MRC-5 fibroblast proliferation assay; type: cell-based, human; conditions: MRC-5, 4 days, concentrations 1/64 to 1/2 of IC50
# Experimental: Untreated cells were used as controls. Cell viability was determined at the end of the incubation by means of the NRU assay.
# [4] = tested on: AGS cells; assay: Sodium taurocholate (NaT)-induced damage to AGS cells; type: cell-based, human; conditions: 60 min pre-treatment, then 10 mM NaT 30 min
# Experimental: The effect of sodium taurocholate (NaT) on cell viability was determined according to [15]. […] Then, 10 mM NaT was added to all wells for 30 min. Untreated cells were used as controls. […] After incubation, the NRU assay was carried out.
# [5] = tested on: AGS cells; assay: Cellular reduced glutathione (GSH) content of AGS cells; type: cell-based, human; conditions: 4 h; for GSH: post-confluent AGS, control 13.6 ± 0.7
# Experimental: Untreated cells were used as controls. […] After incubation, the GSH content was determined using a colorimetric kit (BioAssays Systems, Hayward, CA, USA). Results are expressed as nanomol of soluble reduced sulfhydryls/10^6 cells.
# [6] = tested on: human erythrocyte membranes; assay: Inhibition of lipoperoxidation in erythrocyte membranes; type: biochemical
# [7] = tested on: human erythrocyte membranes; assay: as above; type: biochemical; conditions: at 100 µg/mL
# Experimental: The inhibition of lipid peroxidation was determined using human erythrocyte membranes. The compounds were tested at 100 µg/mL.
# [8] = tested on: AGS cells; assay: Prostaglandin E2 (PGE2) content of AGS cells; type: cell-based, human; conditions: 1 h; for PGE2: post-confluent AGS, control 52 ± 5
# Experimental: One day after confluence, AGS cells were treated for 1 h with the compounds at 1/2 and 1/4 of the respective IC50 values. A control with medium only was included. Indomethacin (100 μM) was used as standard inhibitor of prostaglandin synthesis (Sigma-Aldrich Co., min. 99% by TLC). After incubation, PGE2 content was determined by means of a specific enzyme immunoassay kit (R & D Systems KGE004B, Minneapolis, MN, USA) and values were calculated according to the manufacturer instructions. Results are expressed as pg/well.
# [9] = tested on: HCl-EtOH-induced gastric lesions; parameters: method as in PMID 21996716; conditions: mice, orally, single dose of 5 mg/kg; cited from earlier work
smiles,measurement,setting,value
"CC1=C(CC[C@@H](C)CC(=O)O)[C@@]2(C)CCC[C@](C)(C(=O)O)C2CC1 (some centres unmarked) [Compound 5, Δ8(9) Junicedric acid]",IC50 at 24 h,[1],834 ± 51 µM
same,IC50 at 24 h,[2],666 ± 35 µM
same,Percentual proliferative increase compared to untreated cells,[3],3.6%
same,"reduction in cell viability, NaT-induced damage",[4]; 83 µM,19%
same,"reduction in cell viability, NaT-induced damage",[4]; 333 µM,35%
same,Effect in the GSH assay,"[5]; AGS, 1/4 and 1/8 of IC50",devoid of activity
same,GSH,[5]; 83 µM,13.6 ± 0.5 nmol/10^6 cells
same,GSH,[5]; 166 µM,14.1 ± 0.6 nmol/10^6 cells
same,"IC50, inhibition of the lipoperoxidation",[6],IC50 43.8 ± 2.8 µg/mL
"C=C1CCC2[C@](C)(CCC[C@]2(C)C(=O)O)[C@H]1CC[C@@H](C)CC(=O)OC1=C(CCC(C)C)C(=O)C2=C(CCCC2)C1=O (some centres unmarked) [Compound 11, Dihydroprenyl-5,6,7,8-tetrahydrolapachoyl junicedrate]",IC50 at 24 h,[1],42 ± 2 µM
same,IC50 at 24 h,[2],63 ± 4 µM
same,Percentual proliferative increase compared to untreated cells,[3],3.6%
same,GSH,[5]; 8 µM,13.1 ± 0.6 nmol/10^6 cells
same,GSH,[5]; 16 µM,13.2 ± 0.5 nmol/10^6 cells
same,% Inhibition of the lipoperoxidation,[7],44%
"CC(C)=CCC1=C(OC(=O)C[C@H](C)CC[C@H]2[C@@H](C)CCC3[C@]2(C)CCC[C@]3(C)C(=O)O)C(=O)c2ccccc2C1=O (stereo partly drawn) [Compound 13, Lapachoyl 17β-dihydrojunicedrate]",IC50 at 24 h,[1],355 ± 21 µM
same,IC50 at 24 h,[2],351 ± 29 µM
same,Percentual proliferative increase compared to untreated cells,[3],7.3%
same,"reduction in cell viability, NaT-induced damage",[4]; 45 µM,38%
same,"reduction in cell viability, NaT-induced damage",[4]; 89 µM,38%
same,GSH,[5]; 44 µM,11.9 ± 0.4 nmol/10^6 cells
same,GSH,[5]; 88 µM,11.4 ± 0.6 nmol/10^6 cells
same,"IC50, inhibition of the lipoperoxidation",[6],IC50 61.1 ± 5.9 µg/mL
"COC(=O)[C@@]1(C)CCC[C@@]2(C)C1CC[C@H](C)[C@@H]2CC[C@@H](C)CC(=O)OC1=C(CCC(C)C)C(=O)c2ccccc2C1=O (stereo partly drawn) [Compound 16, Dihydroprenyl lapachol 17β-dihydrojunicedrate methyl ester]",IC50 at 24 h,[1],596 ± 44 µM
same,IC50 at 24 h,[2],643 ± 39 µM
same,"reduction in cell viability, NaT-induced damage",[4]; 81 µM,44%
same,GSH,[5]; 80 µM,14.9 ± 0.7 nmol/10^6 cells
same,GSH,[5]; 160 µM,14.1 ± 0.6 nmol/10^6 cells
same,% Inhibition of the lipoperoxidation,[7],46%
"COC(=O)[C@@]1(C)CCC[C@@]2(C)C1CC[C@H](C)[C@@H]2CC[C@@H](C)CC(=O)OC1=C(CC=C(C)C)C(=O)C2=C(CCCC2)C1=O (stereo partly drawn) [Compound 18, Dihydroprenyl-5,6,7,8-tetrahydrolapachoyl 17β-dihydrojunicedrate methyl ester]",IC50 at 24 h,[1],369 ± 29 µM
same,IC50 at 24 h,[2],884 ± 62 µM
same,Percentual proliferative increase compared to untreated cells,[3],3.6%
same,fold induction at 111 µM,"[8]; Homo sapiens, AGS, 111 µM, read-out: increase in PGE2 content",2.4
same,fold induction at 221 µM,"[8]; Homo sapiens, AGS, 221 µM, read-out: increase in PGE2 content",3
same,PGE2,[8]; 111 µM,123 ± 9 pg/mL
same,PGE2,[8]; 221 µM,156 ± 13 pg/mL
same,activation at 111 µM,"[5]; Homo sapiens, AGS, 111 µM, read-out: increase of GSH content compared to untreated controls",26%
same,activation at 221 µM,"[5]; Homo sapiens, AGS, 221 µM, read-out: increase of GSH content compared to untreated controls",26%
same,GSH,[5]; 111 µM,* 17.1 ± 1.1 nmol/10^6 cells
same,GSH,[5]; 221 µM,* 17.2 ± 1.0 nmol/10^6 cells
same,% Inhibition of the lipoperoxidation,[7],28%
"CC(C)=CCC1=C(OC(=O)C[C@H](C)CCC2=C(C)CCC3[C@@](C)(C(=O)O)CCC[C@]23C)C(=O)c2ccccc2C1=O (some centres unmarked) [Compound 19, Lapachoyl Δ8(9) junicedrate]",IC50 at 24 h,[1],129 ± 9 µM
same,IC50 at 24 h,[2],148 ± 9 µM
same,"reduction in cell viability, NaT-induced damage",[4]; 19 µM,15%
same,"reduction in cell viability, NaT-induced damage",[4]; 37 µM,27%
same,"reduction in cell viability, NaT-induced damage",[4]; 74 µM,40%
same,GSH,[5]; 19 µM,13.1 ± 0.4 nmol/10^6 cells
same,GSH,[5]; 37 µM,13.5 ± 0.5 nmol/10^6 cells
same,% Inhibition of the lipoperoxidation,[7],49%
"CC1=C(CC[C@@H](C)CC(=O)OC2=C(CCC(C)C)C(=O)c3ccccc3C2=O)[C@@]2(C)CCC[C@](C)(C(=O)O)C2CC1 (some centres unmarked) [Compound 21, Dihydroprenyl lapachoyl Δ8(9) junicedrate]",IC50 at 24 h,[1],601 ± 26 µM
same,IC50 at 24 h,[2],278 ± 14 µM
same,"reduction in cell viability, NaT-induced damage",[4]; 35 µM,25%
same,"reduction in cell viability, NaT-induced damage",[4]; 70 µM,27%
same,"reduction in cell viability, NaT-induced damage",[4]; 139 µM,30%
same,fold induction at 85 µM,"[8]; Homo sapiens, AGS, 85 µM, read-out: increase in PGE2 content",3.1
same,PGE2,[8]; 85 µM,162 ± 18 pg/mL
same,activation at 70 µM,"[5]; Homo sapiens, AGS, 70 µM, read-out: increase of GSH content compared to untreated controls",33%
same,GSH,[5]; 35 µM,13.3 ± 0.7 nmol/10^6 cells
same,GSH,[5]; 70 µM,* 18.1 ± 1.1 nmol/10^6 cells
same,gastroprotective effect in vivo,[9],significant activity
"CC1=C(CC[C@@H](C)CC(=O)OC2=C(CCC(C)C)C(=O)C3=C(CCCC3)C2=O)[C@@]2(C)CCC[C@](C)(C(=O)O)C2CC1 (some centres unmarked) [Compound 23, Dihydroprenyl-5,6,7,8-tetrahydrolapachoyl Δ8(9) junicedrate]",IC50 at 24 h,[1],20 ± 2 µM
same,IC50 at 24 h,[2],29 ± 2 µM
same,Stimulation of fibroblast proliferation,[3],inactive
same,"reduction in cell viability, NaT-induced damage",[4]; 7.5 µM,32%
same,"reduction in cell viability, NaT-induced damage",[4]; 15 µM,39%
same,activation at 7.3 µM,"[5]; Homo sapiens, AGS, 7.3 µM, read-out: increase of GSH content compared to untreated controls",26%
same,GSH,[5]; 3.6 µM,12.6 ± 0.8 nmol/10^6 cells
same,GSH,[5]; 7.3 µM,* 17.1 ± 1.3 nmol/10^6 cells
same,"IC50, inhibition of the lipoperoxidation",[6],IC50 59.5 ± 4.3 µg/mL
"COC(=O)[C@@]1(C)CCC[C@]2(C)C(CC[C@@H](C)CC(=O)OC3=C(CCC(C)C)C(=O)C4=C(CCCC4)C3=O)=C(C)CCC12 (some centres unmarked) [Compound 24, Dihydroprenyl-5,6,7,8-tetrahydrolapachoyl Δ8(9) junicedrate methyl ester]",IC50 at 24 h,[1],> 1000 µM
same,IC50 at 24 h,[2],> 1000 µM
same,Stimulation of fibroblast proliferation,[3],inactive
same,fold induction at 250 µM,"[8]; Homo sapiens, AGS, 250 µM, read-out: increase in PGE2 content",2.4
same,PGE2,[8]; 250 µM,123 ± 12 pg/mL
same,GSH,[5]; 125 µM,* 18.7 ± 1.0 nmol/10^6 cells
same,GSH,[5]; 250 µM,* 18.0 ± 0.9 nmol/10^6 cells
same,% Inhibition of the lipoperoxidation,[7],27%
